In PubChem BioAssay AID248 (DTP/NCI, 2004):
Where “and” joins values, the source holds several entries; their conditions need not be identical. Identical values can stand only once. Toxic doses and inconclusive results are not listed. No stated cut-off is given here; in the data, active means T/C of 150% or more; inactive means T/C below 125%.

Tested on: L1210 leukemia ip in BDF1 mice, survival T/C
Assay: NCI In Vivo Anticancer Drug Screen. Data for tumor model L1210 Leukemia (intraperitoneal) in B6D2F1 (BDF1) mice
Conditions: endpoint: mean survival time, higher = longer survival
Method in brief: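 Transplanted-tumor mice were given test agent; controls received vehicle only. Survival readings from the two groups were divided (treated over control).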

[1] = dose: 100.0 mg/kg/injection, schedule: Q01DX001 (ip), vehicle: saline
[2] = dose: 100.0 mg/kg/injection, schedule: Q04DX003 (ip), vehicle: Klucel (hydroxypropylcellulose) (HPC)
[3] = dose: 200.0 mg/kg/injection, schedule: Q01DX001 (ip), vehicle: saline
[4] = dose: 200.0 mg/kg/injection, schedule: Q04DX003 (ip), vehicle: Klucel (hydroxypropylcellulose) (HPC)
[5] = dose: 400.0 mg/kg/injection, schedule: Q01DX001 (ip), vehicle: saline
[6] = dose: 400.0 mg/kg/injection, schedule: Q04DX003 (ip), vehicle: Klucel (hydroxypropylcellulose) (HPC)
[7] = dose: 100.0 mg/kg/injection, schedule: Q01DX009 (ip), vehicle: Klucel (hydroxypropylcellulose) (HPC)
[8] = dose: 200.0 mg/kg/injection, schedule: Q01DX009 (ip), vehicle: Klucel (hydroxypropylcellulose) (HPC)
[9] = dose: 400.0 mg/kg/injection, schedule: Q01DX009 (ip), vehicle: Klucel (hydroxypropylcellulose) (HPC)
[10] = dose: 100.0 mg/kg/injection, schedule: Q04DX003 (ip), vehicle: saline
[11] = dose: 100.0 mg/kg/injection, schedule: Q01DX009 (ip), vehicle: saline with Tween-80
[12] = dose: 100.0 mg/kg/injection, schedule: Q04DX003 (ip), vehicle: saline with Tween-80
[13] = dose: 200.0 mg/kg/injection, schedule: Q04DX003 (ip), vehicle: saline with Tween-80
[14] = dose: 400.0 mg/kg/injection, schedule: Q04DX003 (ip), vehicle: saline with Tween-80
[15] = dose: 50.0 mg/kg/injection, schedule: Q01DX001 (ip), vehicle: saline
[16] = dose: 100.0 mg/kg/injection, schedule: Q01DX001 (ip), vehicle: carboxymethylcellulose (CMC)
[17] = dose: 200.0 mg/kg/injection, schedule: Q01DX001 (ip), vehicle: carboxymethylcellulose (CMC)
[18] = dose: 400.0 mg/kg/injection, schedule: Q01DX001 (ip), vehicle: carboxymethylcellulose (CMC)

Measured: T/C

OC1CCC(O)C2CCCCC12 (centres undefined)
inactive: [1] 101 % of control | [2] 112 % of control | [3] 95 % of control | [4] 91 % of control | [5] 95 % of control | [6] 104 % of control

CSc1ccc(NC(=O)Nc2ccccc2C)cc1
inactive: [7] 100 % of control | [2] 93 % of control | [8] 94 % of control | [4] 95 % of control | [9] 96 % of control | [6] 88 % of control

CCN(CC)CCN(C(=O)C(O)(c1ccccc1)c1ccccc1)C(C)C
inactive: dose: 100.0 mg/kg/injection, schedule: Q04DX002 (ip), vehicle: saline 101 % of control | dose: 200.0 mg/kg/injection, schedule: Q04DX002 (ip), vehicle: saline 108 % of control

O=C(O)c1ccc(Br)cc1
inactive: [10] 89 % of control | dose: 200.0 mg/kg/injection, schedule: Q04DX003 (ip), vehicle: saline 86 % of control

CCOC(=O)c1cc(Cl)nc2ccc3ccccc3c12
inactive: [7] 101 % of control | [8] 97 % of control | [9] 96 % of control

C/C(=N\O)c1ccccc1C
inactive: [2] 101 % of control | [4] 106 % of control | [6] 93 % of control

COc1cc(C=Nc2ccc(Cl)cc2)ccc1O
inactive: [11] 97 % of control | [12] 120 % of control | dose: 200.0 mg/kg/injection, schedule: Q01DX009 (ip), vehicle: saline with Tween-80 94 % of control | [13] 96 % of control | dose: 400.0 mg/kg/injection, schedule: Q01DX009 (ip), vehicle: saline with Tween-80 101 % of control | [14] 103 % of control

CCCc1ccc2c(c1)CCCC2
inactive: [7] 94 % of control | [2] 94 % of control | [8] 90 % of control | [4] 93 % of control | [9] 97 % of control | [6] 94 % of control

Cc1cc(N(CCCl)CCCl)ccc1C=Nc1ccccc1-c1ccccc1
inactive: dose: 5.0 mg/kg/injection, schedule: Q01DX Z (ip), vehicle: carboxymethylcellulose (CMC) 110 % of control | dose: 10.0 mg/kg/injection, schedule: Q01DX Z (ip), vehicle: carboxymethylcellulose (CMC) 114 % of control | dose: 40.0 mg/kg/injection, schedule: Q01DX Z (ip), vehicle: carboxymethylcellulose (CMC) 109 % of control | dose: 80.0 mg/kg/injection, schedule: Q01DX Z (ip), vehicle: carboxymethylcellulose (CMC) 117 % of control

CCCCCCCCCCCCOP(=O)(OCC)OCC
inactive: dose: 100.0 mg/kg/injection, schedule: Q04DX002 (ip), vehicle: saline with Tween-80 88 % of control | dose: 200.0 mg/kg/injection, schedule: Q04DX002 (ip), vehicle: saline with Tween-80 88 % of control | dose: 400.0 mg/kg/injection, schedule: Q04DX002 (ip), vehicle: saline with Tween-80 88 % of control

O=c1oc2ccccc2c(O)c1C(C/C(=N/O)c1ccccc1)c1ccccc1 (centres undefined)
inactive: [12] 96 % of control | [13] 91 % of control | [14] 88 % of control

O=C1CCCC(=O)NNC(=O)Nc2ccc(cc2)-c2ccc(cc2)NC(=O)NN1
inactive: [15] 104 % of control | [1] 104 % of control | [5] 96 % of control

Cc1ccnc(NS(=O)(=O)c2ccc(N=[N+]=[N-])cc2)n1
inactive: dose: 100.0 mg/kg/injection, schedule: Q01DX009 (ip), vehicle: carboxymethylcellulose (CMC) 92 % of control and 91 % of control | dose: 100.0 mg/kg/injection, schedule: Q04DX002 (ip), vehicle: carboxymethylcellulose (CMC) 98 % of control | dose: 200.0 mg/kg/injection, schedule: Q01DX009 (ip), vehicle: carboxymethylcellulose (CMC) 95 % of control | dose: 200.0 mg/kg/injection, schedule: Q04DX002 (ip), vehicle: carboxymethylcellulose (CMC) 93 % of control and 98 % of control | dose: 400.0 mg/kg/injection, schedule: Q01DX009 (ip), vehicle: carboxymethylcellulose (CMC) 97 % of control and 102 % of control | dose: 400.0 mg/kg/injection, schedule: Q04DX002 (ip), vehicle: carboxymethylcellulose (CMC) 101 % of control and 105 % of control

COc1cccc2c1C(=O)c1c(O)c3c(c(O)c1C2=O)CC(O)(C(C)=O)CC3OC1CC(NC(=O)C(F)(F)F)C(O)C(C)O1 (centres undefined)
inactive: dose: 0.25 mg/kg/injection, schedule: Q04DX003 (ip), vehicle: water 96 % of control | dose: 0.5 mg/kg/injection, schedule: Q04DX003 (ip), vehicle: water 95 % of control | dose: 1.0 mg/kg/injection, schedule: Q04DX003 (ip), vehicle: water 106 % of control | dose: 2.0 mg/kg/injection, schedule: Q04DX003 (ip), vehicle: water 111 % of control | dose: 4.0 mg/kg/injection, schedule: Q04DX003 (ip), vehicle: water 98 % of control | dose: 8.0 mg/kg/injection, schedule: Q04DX003 (ip), vehicle: water 90 % of control | dose: 14.0 mg/kg/injection, schedule: Q04DX003 (ip), vehicle: water 107 % of control | dose: 16.0 mg/kg/injection, schedule: Q04DX003 (ip), vehicle: water 101 % of control | dose: 21.0 mg/kg/injection, schedule: Q04DX003 (ip), vehicle: water 113 % of control | dose: 25.0 mg/kg/injection, schedule: Q04DX003 (ip), vehicle: water 110 % of control | dose: 32.0 mg/kg/injection, schedule: Q04DX003 (ip), vehicle: water 110 % of control | dose: 50.0 mg/kg/injection, schedule: Q04DX003 (ip), vehicle: water 107 % of control and 112 % of control | dose: 100.0 mg/kg/injection, schedule: Q04DX003 (ip), vehicle: water 112 % of control

COc1ccc2c(C)c(C)[nH]c2c1
inactive: [15] 101 % of control | [1] 109 % of control | [3] 115 % of control | [5] 104 % of control

C#CCOCCCC(=C)C
inactive: dose: 25.0 mg/kg/injection, schedule: Q01DX009 (ip), vehicle: saline 109 % of control | dose: 50.0 mg/kg/injection, schedule: Q01DX009 (ip), vehicle: saline 93 % of control

COc1cccc2c(=O)c(COC(C)=O)c(C)[nH]c12
inactive: dose: 12.5 mg/kg/injection, schedule: Q01DX009 (ip), vehicle: saline with Tween-80 100 % of control | dose: 25.0 mg/kg/injection, schedule: Q01DX009 (ip), vehicle: saline with Tween-80 100 % of control | dose: 50.0 mg/kg/injection, schedule: Q01DX009 (ip), vehicle: saline with Tween-80 98 % of control | [11] 106 % of control

CC1OC(OC2C(O)C(O)C(O)C(O)C2O)C(N)CC1N=C(N)C(=O)O (centres undefined)
inactive: [16] 90 % of control | [17] 96 % of control | [18] 100 % of control

O=C(NCCCCC(NC(=O)c1ccccc1)C(=O)NCCCCCCCCCCNC(=O)C(CCCCNC(=O)c1ccccc1)NC(=O)c1ccccc1)c1ccccc1 (centres undefined)
inactive: dose: 10.0 mg/kg/injection, schedule: Q01DX Z (ip), vehicle: saline 100 % of control | dose: 30.0 mg/kg/injection, schedule: Q01DX Z (ip), vehicle: saline 90 % of control

O=C(CC(C(=O)Nc1ccccc1)C(O)(c1ccccc1)c1ccccc1)Nc1ccccc1 (centres undefined)
inactive: [16] 95 % of control | [17] 91 % of control | [18] 95 % of control

CCOC(=O)C1OC1C1c2cccc3cccc(c23)C1C1OC1C(=O)OCC (centres undefined)
inactive: [1] 107 % of control | [3] 94 % of control | [5] 102 % of control

CCc1ccc(NC2=NCCO2)cc1
inactive: dose: 12.5 mg/kg/injection, schedule: Q04DX003 (ip), vehicle: saline 112 % of control | dose: 25.0 mg/kg/injection, schedule: Q01DX009 (ip), vehicle: Klucel (hydroxypropylcellulose) (HPC) 100 % of control | dose: 25.0 mg/kg/injection, schedule: Q04DX003 (ip), vehicle: saline 114 % of control | dose: 50.0 mg/kg/injection, schedule: Q01DX009 (ip), vehicle: Klucel (hydroxypropylcellulose) (HPC) 95 % of control | dose: 50.0 mg/kg/injection, schedule: Q04DX003 (ip), vehicle: saline 101 % of control | [10] 102 % of control

CCC(C)(C)c1ccc(OCCOS(=O)(=O)c2ccc(C)cc2)cc1
inactive: dose: 100.0 mg/kg/injection, schedule: Q01DX009 (ip), vehicle: saline sonified 96 % of control | dose: 200.0 mg/kg/injection, schedule: Q01DX009 (ip), vehicle: saline sonified 108 % of control | dose: 400.0 mg/kg/injection, schedule: Q01DX009 (ip), vehicle: saline sonified 97 % of control

O=C(O)CCCCCCCCCCCCO
inactive: [2] 96 % of control | [4] 91 % of control | [6] 96 % of control
